Measurements from patent US20240216321A1, “FERMENTATIVELY-PRODUCED RETINOID CONTAINING COMPOSITIONS, AND THE METHDOS OF MAKING AND USING THE SAME” (DSM IP Assets B.V., priority 2022, published 2024).

Legend:
Corynebacterium xerosis = experiment: Antimicrobial efficacy test in analogy to challenge test NF EN ISO11930; format: cell-based; conditions: initial inoculum count 100,000, 22° C.
Method: (§1) The antimicrobial efficacy of retinol and retinyl acetate having different cis/trans ratio has been assessed in analogy to the regulatory challenge test method (NF EN ISO11930). Thus, solutions of the respective retinol and retinyl acetate mixtures (reference samples and inventive mixtures with a purity of about 98%) were prepared in physiological serum with 0.85 wt.-% NaCl under sterile conditions. The presence of cis and trans-isomers in the retinoid component were calculated by reversed phase C4 HPLC analysis, with the total cis-isomer content in the retinoid component, relative to the total weight of trans-isomers in the retinoid component detected, is reported in Table 4 below along the row labelled “cis/trans ratio”. Also reported for each sample was the specific retinoid used as the retinoid component (either retinyl acetate or retinol for all samples). The solutions of the active(s) were then deposed in 96-deep well plates (1.6 ml/well) at a concentration as specified by wt. % in Table 4 below. The wells were contaminated with Cutibacterium acnes, Corynebacterium xerosis, and Malassezia furfur, respectively, to obtain the initial contamination. The initial contamination count, which is listed as “initial inoculum count” for each test as indicated in Tale 4 below, was determined to be 100,000. After contamination, each well was thoroughly mixed to ensure a homogeneous distribution of the microbes. Then each plate was incubated at 22° C. for 24 h. The counting of the (remaining) population was carried out 24 hours after contamination, as indicated below in Table 4 by the rows labelled “24 hr”. The change in count from the initial inoculum count to the 24-hour count (in terms of percentage) is reflected in the Table below by the rows labelled “A R”.

Cutibacterium acnes = experiment: as above; format: cell-based; conditions: for 24 hr count (remaining population) / Δ R (change from initial inoculum count to 24-hour count): initial inoculum count 100,000, 22° C.; for reduction of Cutibacterium acnes: stated as reduction
Method: as §1

[1] = format: physicochemical
Method: Retinoid quantification: Analysis of retinoids were carried out with a C4 reverse phase retinoid method (see below). The addition of all added intermediates gives the total amount of retinoids.
C4 reverse phase chromatography. For exact determination of discrete retinoids, the long run reverse phase system was used. Analytes were separated using the Agilent 1290 instrument with YMC Pro C4, 150×3.0 mm, 3 um column (YMC America, Allentown PA) stationary phase, and a 5 μl injection loop volume and column and sample tray controlled at 23° C. with gradients described in Table B. Analytes were detected at 210, 230 nm and 325 nm and the peak's identity was verified with LCMS. The analytes were separated as discrete peaks that were assigned according to the table below. […]
To determine oxidative stability of examples 1-5, each sample, the preparation of which is described above, was placed under ambient conditions (20° C. and 50% relative humidity preferred) in its own small brown glass vial, blanketed with argon, and put into an oven preheated to 105° C. Thereafter, the samples remained in the oven for 3 hours. After three hours the samples were taken out of the oven and analyzed via the same method(s) utilized to determine “initial” values as reported in Table 1 above. The values for each component were measured after the thermal stress test and compared to the values determined prior to the test. For clarity, example 1 indicated a total retinoid component (see row in Table 1 above labelled “all retinyl acetate (all species)”) prior to the thermal stress test of 90.53%; the change indicated in Table 2 of −1.31% below signifies that the total retinoid component determined after the thermal stress test was 89.22% (by weight relative to the entire sample weight).

Malassezia furfur = experiment: Antimicrobial efficacy test in analogy to challenge test NF EN ISO11930; format: cell-based; conditions: concentration 0.25%, initial inoculum count 100,000, 22° C.
Method: as §1

[2] = 105° C. for 3 hours, blanketed with argon, change vs value before test

Row | SMILES | 24 hr count (remaining population) (Corynebacterium xerosis; concentration 0.1%) | Δ R (change from initial inoculum count to 24-hour count) (Corynebacterium xerosis; concentration 0.1%) [%] | 24 hr count (remaining population) (Corynebacterium xerosis; concentration 0.25%) | Δ R (change from initial inoculum count to 24-hour count) (Corynebacterium xerosis; concentration 0.25%) [%] | 24 hr count (remaining population) (Cutibacterium acnes; concentration 0.1%) | Δ R (change from initial inoculum count to 24-hour count) (Cutibacterium acnes; concentration 0.1%) [%] | reduction of Cutibacterium acnes (Cutibacterium acnes; retinyl acetate mixtures) | 24 hr count (remaining population) (Malassezia furfur) | Δ R (change from initial inoculum count to 24-hour count) (Malassezia furfur) [%] | 24 hr count (remaining population) (Cutibacterium acnes; concentration 0.25%) | Δ R (change from initial inoculum count to 24-hour count) (Cutibacterium acnes; concentration 0.25%) [%] | other results
1 | CC(=O)OC/C=C(C)/C=C/C=C(C)/C=C/C1=C(C)CCCC1(C)C [Ex. 8, Retinyl acetate] | 70,000 | −30 | 37,000 | −63 | 70,000 | −30 | about 30% |  |  |  |  | 
2 | CC(=O)OC/C=C(C)/C=C/C=C(C)/C=C/C1=C(C)CCCC1(C)C [Ex. 7, Retinyl acetate] | 370,000 | 270 | 40,000 | −60 | 370,000 | 270 |  |  |  |  |  | 
3 | CC(=O)OC/C=C(C)/C=C/C=C(C)/C=C/C1=C(C)CCCC1(C)C [Ex. 9, Retinyl acetate] | 70,000 | −30 | 10,000 | −90 | 70,000 | −30 | about 30% |  |  |  |  | 
4 | CC(=O)OC/C=C(C)/C=C/C=C(C)/C=C/C1=C(C)CCCC1(C)C [Example 5, retinyl acetate] |  |  |  |  |  |  |  |  |  |  |  | 9Z-retinal, % change [1, 2]: 0.00%; Dihydro-actinidiole, % change [1, 2]: −0.01%; Dihydro-retinol, % change [1, 2]: 0.00%; E-Retinal, % change [1, 2]: −0.01%; E-retinol, % change [1, 2]: −0.01%; Retinyl acetate (all species), % change [1, 2]: −5.50%; Z-retinol, % change [1, 2]: −0.04%; cis-retinyl acetate, % change [1, 2]: −0.22%; Ethanol, % change ([1]; 105° C. for 3 hours, blanketed with argon, change vs value before test (wt. % of entire composition)): 0.00%; reduction in retinyl acetate (loss of retinyl acetate content) after heat stability test ([1]; 3 h): 5.50%
5 | CC1=C(/C=C/C(C)=C/C=C/C(C)=C/CO)C(C)(C)CCC1 [Ex. 10, Retinol] |  |  |  |  |  |  |  | 100,000 | 0 | 1,000 | −99 | 
6 | CC1=C(/C=C/C(C)=C/C=C/C(C)=C/CO)C(C)(C)CCC1 [Ex. 11, Retinol] |  |  |  |  |  |  |  | 40,000 | −60 | 700 | −99.3 | reduction of Cutibacterium acnes (Cutibacterium acnes; retinol compositions): 99.3%
